Laboratory results published in ChEMBL document CHEMBL5390243, “Catecholamine Derivatives: Natural Occurrence, Structural Diversity, and Biological Activity” (J Nat Prod, 2023).
Converted amounts (≈) assume the structure as drawn. Blank lines part the entries; values can stand above or below the molecule they belong to.

Assays:
[1] = target: Beta-2 adrenergic receptor (Homo sapiens) (UniProt P07550); test: Agonist activity at ARbeta2 (unknown origin) expressed in CHO-K1 cells co-expressing G alpha 15 assessed as inhibition of isoproterenol induced calcium response upto 100 uM incubated for 10 mins by calcium mobilization assay relative to control; format: functional, cell-based; parameters: scale not given: the % may be the effect or the level left
Beta-2 adrenergic receptor (Homo sapiens), sequence (P07550 whole entry, looked up): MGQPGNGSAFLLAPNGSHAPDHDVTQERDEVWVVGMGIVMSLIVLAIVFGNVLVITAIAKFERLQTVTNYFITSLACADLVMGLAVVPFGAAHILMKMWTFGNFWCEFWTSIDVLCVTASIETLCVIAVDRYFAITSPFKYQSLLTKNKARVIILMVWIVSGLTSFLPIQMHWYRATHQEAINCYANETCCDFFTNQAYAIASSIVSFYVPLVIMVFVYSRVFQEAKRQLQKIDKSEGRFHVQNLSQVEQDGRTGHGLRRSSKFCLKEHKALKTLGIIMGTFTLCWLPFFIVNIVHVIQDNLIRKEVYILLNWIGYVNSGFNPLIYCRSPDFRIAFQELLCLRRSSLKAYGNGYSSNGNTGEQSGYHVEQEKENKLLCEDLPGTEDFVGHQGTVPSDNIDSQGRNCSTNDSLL

Acetylcholinesterase = Acetylcholinesterase (Homo sapiens, UniProt P22303); test: Inhibition of AChE (unknown origin)
Acetylcholinesterase, sequence (P22303 whole entry): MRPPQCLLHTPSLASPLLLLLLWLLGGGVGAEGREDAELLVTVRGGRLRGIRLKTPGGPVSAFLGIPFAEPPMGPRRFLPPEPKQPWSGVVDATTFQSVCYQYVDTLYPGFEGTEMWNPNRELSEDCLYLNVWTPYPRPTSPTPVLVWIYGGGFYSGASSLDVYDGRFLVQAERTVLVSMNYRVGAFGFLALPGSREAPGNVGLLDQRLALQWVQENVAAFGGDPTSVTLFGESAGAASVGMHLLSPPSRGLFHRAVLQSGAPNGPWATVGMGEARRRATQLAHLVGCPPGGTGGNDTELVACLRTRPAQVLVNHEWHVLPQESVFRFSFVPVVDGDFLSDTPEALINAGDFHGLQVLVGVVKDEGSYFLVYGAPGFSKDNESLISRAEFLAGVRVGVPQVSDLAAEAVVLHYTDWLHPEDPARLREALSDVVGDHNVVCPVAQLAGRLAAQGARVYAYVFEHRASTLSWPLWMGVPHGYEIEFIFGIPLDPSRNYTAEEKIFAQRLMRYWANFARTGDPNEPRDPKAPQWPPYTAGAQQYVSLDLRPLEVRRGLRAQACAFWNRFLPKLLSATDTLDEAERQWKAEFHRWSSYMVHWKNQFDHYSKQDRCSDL

RAW264.7 [2] = test: Antiinflammatory activity against LPS-induced mouse RAW264.7 cells assessed as maximal inhibition of TNF-alpha production at 10 to 100 nM incubated for 48 hrs by ELISA analysis relative to control; format: functional; parameters: scale not given: the % may be the effect or the level left; settings: dose 10-100 nM
[3] = target: Tyrosine-protein kinase JAK3 (Homo sapiens, UniProt P52333); test: Inhibition of JAK3 (unknown origin) preincubated for 1 hr followed by substrate addition and measured after 1 hr in the presence of ATP by FRET-based Z'-Lyte assay
Tyrosine-protein kinase JAK3, sequence (P52333 whole entry): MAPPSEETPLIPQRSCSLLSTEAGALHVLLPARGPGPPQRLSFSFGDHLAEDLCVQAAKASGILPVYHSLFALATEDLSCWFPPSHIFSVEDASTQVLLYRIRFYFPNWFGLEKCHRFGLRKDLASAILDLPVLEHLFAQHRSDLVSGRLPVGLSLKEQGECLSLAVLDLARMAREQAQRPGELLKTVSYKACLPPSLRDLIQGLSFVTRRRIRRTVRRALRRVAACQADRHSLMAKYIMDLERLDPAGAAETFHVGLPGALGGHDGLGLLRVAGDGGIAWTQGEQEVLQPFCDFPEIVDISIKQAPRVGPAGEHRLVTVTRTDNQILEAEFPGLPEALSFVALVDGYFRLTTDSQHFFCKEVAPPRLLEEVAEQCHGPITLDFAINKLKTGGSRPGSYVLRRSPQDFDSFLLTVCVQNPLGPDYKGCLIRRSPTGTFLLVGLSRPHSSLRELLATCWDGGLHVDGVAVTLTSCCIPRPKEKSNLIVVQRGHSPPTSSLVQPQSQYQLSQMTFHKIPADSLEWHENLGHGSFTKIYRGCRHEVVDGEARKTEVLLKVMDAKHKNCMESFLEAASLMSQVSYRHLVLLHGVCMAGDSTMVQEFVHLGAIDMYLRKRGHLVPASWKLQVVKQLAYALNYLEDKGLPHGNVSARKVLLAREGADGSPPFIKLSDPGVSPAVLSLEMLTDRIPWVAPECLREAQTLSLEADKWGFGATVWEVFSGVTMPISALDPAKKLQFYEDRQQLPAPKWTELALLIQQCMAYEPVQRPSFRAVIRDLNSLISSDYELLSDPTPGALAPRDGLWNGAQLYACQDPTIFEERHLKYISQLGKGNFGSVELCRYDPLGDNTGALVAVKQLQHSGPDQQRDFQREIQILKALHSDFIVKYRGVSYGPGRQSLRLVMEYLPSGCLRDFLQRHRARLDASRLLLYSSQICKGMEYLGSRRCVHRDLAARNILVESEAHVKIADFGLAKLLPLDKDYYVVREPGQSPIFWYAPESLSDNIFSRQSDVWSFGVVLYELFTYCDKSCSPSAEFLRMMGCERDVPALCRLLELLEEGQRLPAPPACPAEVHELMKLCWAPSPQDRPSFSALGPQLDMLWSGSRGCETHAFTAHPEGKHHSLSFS

[4] = target: T1, Prostaglandin G/H synthase 2 (Homo sapiens, UniProt P35354); test: Inhibition of human recombinant COX-2 using arachidonic acid as substrate preincubated with compound for 15 mins followed by substrate addition and measured after 15 mins by fluorescence based analysis
T1 sequence (P35354 whole entry): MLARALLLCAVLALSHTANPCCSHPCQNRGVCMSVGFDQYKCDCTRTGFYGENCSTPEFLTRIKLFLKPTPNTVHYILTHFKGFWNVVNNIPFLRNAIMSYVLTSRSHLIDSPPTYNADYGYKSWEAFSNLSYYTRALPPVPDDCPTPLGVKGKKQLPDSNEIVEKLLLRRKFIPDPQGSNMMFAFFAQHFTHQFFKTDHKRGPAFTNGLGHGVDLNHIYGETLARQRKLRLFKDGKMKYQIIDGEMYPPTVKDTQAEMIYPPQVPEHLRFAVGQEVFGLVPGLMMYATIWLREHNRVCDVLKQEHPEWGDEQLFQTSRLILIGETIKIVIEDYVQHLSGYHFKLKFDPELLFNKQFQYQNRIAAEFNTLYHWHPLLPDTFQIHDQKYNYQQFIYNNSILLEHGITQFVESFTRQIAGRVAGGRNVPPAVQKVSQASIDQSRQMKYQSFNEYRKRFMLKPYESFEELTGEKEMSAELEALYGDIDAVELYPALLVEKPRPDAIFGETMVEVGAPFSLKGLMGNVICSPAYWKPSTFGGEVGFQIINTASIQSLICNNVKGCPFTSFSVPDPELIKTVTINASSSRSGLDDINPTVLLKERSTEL

RAW264.7 [5] = test: Anti-inflammatory activity against mouse RAW264.7 cells assessed as inhibition of LPS-induced NO production at 25 uM; format: functional; parameters: scale not given: the % may be the effect or the level left
[6] = Antioxidant activity assessed as DPPH radical scavenging activity measured after 30 mins; format: functional
Nakaseomyces glabratus [7] = test: Antifungal activity against Candida glabrata assessed as reduction in fungal growth incubated for 24 hrs by serial dilution method; format: functional
Leishmania amazonensis = test: Antileishmanial activity against Leishmania amazonensis amastigotes assessed as inhibition of parasitic growth; format: functional, organism-based
Trypanosoma cruzi = test: Antitrypanosomal activity against Trypanosoma cruzi trypomastigotes infected in Swiss albino mouse assessed a s reduction in parasitic growth and measured after 24 hrs; format: functional, organism-based
[8] = Antioxidant activity assessed as DPPH radical scavenging activity measured for 45 mins by spectrophotometric analysis; format: functional
RAW264.7 [9] = test: Anti-inflammatory activity against mouse RAW264.7 cells assessed as inhibition of LPS-induced nitric oxide production at 50 uM preincubated for 2 hrs with compound followed by LPS-stimulation and measured after 24 hrs by Griess reagent based analysis; format: functional, cell-based
[10] = Antioxidant activity assessed as DPPH radical scavenging activity measured after 30 mins by spectrophotometric analysis; format: functional
RAW264.7 [11] = test: Antiinflammatory activity against mouse RAW264.7 cells assessed as inhibition of LPS-induced nitric oxide production at 25 uM measured after 24 hrs relative to control; format: functional; parameters: scale not given: the % may be the effect or the level left
[12] = target: Peroxisome proliferator-activated receptor alpha (Homo sapiens) (UniProt Q07869); test: Activation of PPARalpha (unknown origin) expressed in human HepG2 cells assessed as fold change at 1.47 ug/ml incubated for 24 hrs by luciferase assay; format: cell-based; settings: filed as activator, dose 1.47 µg/ml
Peroxisome proliferator-activated receptor alpha (Homo sapiens), sequence (Q07869 whole entry): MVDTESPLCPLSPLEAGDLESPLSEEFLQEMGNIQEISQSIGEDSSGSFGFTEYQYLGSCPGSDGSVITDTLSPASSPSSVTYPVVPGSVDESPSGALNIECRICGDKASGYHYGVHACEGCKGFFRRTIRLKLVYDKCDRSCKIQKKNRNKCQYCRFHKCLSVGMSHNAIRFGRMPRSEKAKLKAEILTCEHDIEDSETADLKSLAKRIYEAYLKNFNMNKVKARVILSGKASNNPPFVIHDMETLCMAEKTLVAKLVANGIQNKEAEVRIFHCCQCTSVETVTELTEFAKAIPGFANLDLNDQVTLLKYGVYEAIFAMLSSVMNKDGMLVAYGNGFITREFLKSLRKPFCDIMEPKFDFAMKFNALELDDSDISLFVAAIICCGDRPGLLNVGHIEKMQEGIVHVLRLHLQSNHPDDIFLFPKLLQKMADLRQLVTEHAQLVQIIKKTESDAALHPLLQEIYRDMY

Staphylococcus aureus [13] = test: Antibacterial activity against methicillin-resistant Staphylococcus aureus […] assessed as bacterial growth inhibition measured after 24 hrs by CLSI based two-fold serial dilution method; format: functional
Staphylococcus aureus [14] = test: Antibacterial activity against vancomycin-intermediate Staphylococcus aureus ATCC 700787 assessed as bacterial growth inhibition incubated for 24 hrs by CLSI based two-fold serial dilution method; format: functional
Staphylococcus aureus [15] = test: Antibacterial activity against methicillin-sensitive Staphylococcus aureus ATCC 29213 assessed as bacterial growth inhibition measured after 24 hrs by CLSI based two-fold serial dilution method; format: functional
Nakaseomyces glabratus [16] = test: Antifungal activity against Candida glabrata ATCC 15126 assessed as reduction in microbial growth incubated for 24 hrs by CLSI based broth micro-dilution method; format: functional
[17] = Antioxidant activity assessed as DPPH radical scavenging activity measured after 30 mins by UV-visible spectrophotometric analysis; format: functional
[18] = Antioxidant activity assessed as ABTS radical scavenging activity incubated for 30 mins by UV-visible spectrphotometric analysis; format: functional

Activity [1]: 13.4%
Compound: Oc1cc2c(cc1O)C(c1ccco1)=NCC2

IC50 [3]: 12.2 µM | IC50 [4]: 6.86 µM
Compound: CC(=O)NCCc1ccc(NC(=O)c2ccc(O)c(O)c2)c(O)c1

EC50 [6]: 9.98 µM
Compound: O=C1NCCc2cc(O)c(O)cc21

IC50 (Trypanosoma cruzi): 0.23 µM
Compound: Oc1ccc([C@H]2NCCc3cc(O)c(O)cc32)cc1O
IC50 (Leishmania amazonensis): 0.16 µM

EC50 [8]: 38.3 µM | IC50 (RAW264.7 [9]): 67.2 µM
Compound: O=C(O)[C@@H]1Cc2cc(O)c(O[C@@H]3O[C@H](CO)[C@@H](O)[C@H](O)[C@H]3O)cc2N1C(=O)/C=C/c1ccc(O[C@@H]2O[C@H](CO)[C@@H](O)[C@H](O)[C@H]2O)cc1

EC50 [10]: 14.4 µM
Compound: O=C1c2cc(O)c(O)cc2CCn2cccc21

fold change (FC) [12]: 2.2
Compound: CC(C)(Oc1ccc(C2CC2(Cl)Cl)cc1)C(=O)O (stereo unspecified)

The next lines start with the molecule.

Compound: COc1cc(/C=C/C(=O)NCCc2ccc(O)c(O)c2)ccc1O [N-TRANS-FERULOYLDOPAMINE]
IC50 (Acetylcholinesterase): 8.52 µM

Compound: O=C(/C=C/c1ccc(O)c(O)c1)N[C@@H](Cc1ccc(O)c(O)c1)C(=O)O
Activity (RAW264.7 [2]): 80%

Compound: CC(=O)N/C=C/c1ccc(O)c(O)c1
Activity (RAW264.7 [5]): 32.9%

Compound: C[C@H](N)[C@H](CCCCCCCCCCCC/C=C/C(O)CCCCCCC[C@@H]1NCCc2cc(O)c(O)cc21)O[C@@H]1O[C@@H](CO)[C@@H](O)[C@@H](O)[C@@H]1O (stereo partly specified)
MIC (Nakaseomyces glabratus [7]): 25 µg/mL (≈ 34.6 µM)

Compound: Oc1ccc(-c2cnccn2)cc1O
Activity (RAW264.7 [11]): 42.11%

Compound: O=C1N[C@@H](Cc2ccc(O)c(O)c2)C(=O)N2CCC[C@@H]12
MIC (Staphylococcus aureus [13]): 256 µg/mL (≈ 927 µM) | MIC (Staphylococcus aureus [14]): 256 µg/mL (≈ 927 µM) | MIC (Staphylococcus aureus [15]): 256 µg/mL (≈ 927 µM) | MIC (Nakaseomyces glabratus [16]): 128 µg/mL | EC50 [17]: 12.98 µg/mL (≈ 47 µM) | EC50 [18]: 1.71 µg/mL (≈ 6.19 µM)
